Assay results as given in paper PMC3928712 (ACS chemical biology, 2013).

Molecular target: 2009 pandemic H1N1 (pH1N1) PAN endonuclease (Influenza A virus, UniProt C3W5S0)
Details: for improvement in inhibitory activity compared to 2: relative to compound 2

| Structure (SMILES) | improvement in inhibitory activity compared to 2 [fold] | IC50 (enzymatic assay, PAN endonuclease) [µM] |
| --- | --- | --- |
| O=c1[nH]c(-c2ccccc2)ccc1O [Compound 4] | 40 | – |
| O=c1[nH]cc(Br)cc1O [Compound 2] | – | 16 |
| O=c1[nH]c(-c2ccc(F)cc2)c(-c2ccc(F)cc2)cc1O [Compound 6] | 400 | – |
| N#Cc1cccc(-c2c[nH]c(=O)c(O)c2)c1 [Compound 3] | 20 | – |
